Calls of active or inactive are those of the source. No cut-off for these calls is given here.

Data set [1] has as its system A549. Kind of data set: Antiproliferative activity against human A549 cells assessed as cell viability measured after 48 hrs incubation by MTT assay. It is filed as functional, cell-based. The conditions noted are these: A549, 48 h. In general terms: Tetrazolium assays rely on reduction of a dye to a coloured formazan, in cell work by metabolically active cells.
The test system of data set [2] is MCF7. Kind of data set: Induction of apoptosis in human MCF7 cells assessed as necrotic cells at 6 uM measured after 48 hrs incubation by Annexin V-FITC/PI double staining assay (reference value: 0.77%). It is filed as functional.
Data set [3] has as its system MCF7. Kind of data set: Antiproliferative activity against human MCF7 cells assessed as cell viability measured after 48 hrs incubation by MTT assay. It is filed as functional, cell-based. The conditions noted are these: MCF7, 48 h.
Data set [4] deals with MCF7. The data set can be described thus: Induction of cell cycle arrest in human MCF7 cells assessed as accumulation of cells at G0/G1 phase at 6 uM measured after 48 hrs by PI staining based flow cytometry analysis (reference value: 58.42%). It is filed as functional. Background: Flow cytometry measures light scatter and fluorescence of single cells or particles in a stream.

The subject of data set [5] is MCF7. Kind of data set: Induction of apoptosis in human MCF7 cells assessed as viable cells at 6 uM measured after 48 hrs incubation by Annexin V-FITC/PI double staining assay (reference value: 92.8%). It counts as functional. The conditions noted are these: read-out: Activity.
Data set [6] relates to HepG2. Kind of data set: Antiproliferative activity against human HepG2 cells assessed as cell viability measured after 48 hrs incubation by MTT assay. It counts as functional, cell-based. As to conditions: HepG2, 48 h.
Data set [7] concerns MCF7. The data set can be described thus: Induction of apoptosis in human MCF7 cells assessed as late apoptotic cells at 6 uM measured after 48 hrs incubation by Annexin V-FITC/PI double staining assay (reference value: 0.68%). It is filed as functional.
In data set [8] the test system is MCF7. Kind of data set: Induction of apoptosis in human MCF7 cells assessed as early apoptotic cells at 6 uM measured after 48 hrs incubation by Annexin V-FITC/PI double staining assay (reference value: 5.73%). It is filed as functional.
Data set [9] relates to MCF7. The data set can be described thus: Induction of cell cycle arrest in human MCF7 cells assessed as accumulation of cells at S phase at 6 uM measured after 48 hrs by PI staining based flow cytometry analysis (reference value: 24.67%). It counts as functional.
In data set [10] the test system is MCF7. Kind of data set: Induction of cell cycle arrest in human MCF7 cells assessed as accumulation of cells at G2/M phase at 6 uM measured after 48 hrs by PI staining based flow cytometry analysis (reference value: 16.91%). It is filed as functional.
In data set [11] the test system is MCF7. The data set can be described thus: Induction of apoptosis in human MCF7 cells assessed as decrease in mitochondrial membrane potential by measuring increase in JC-1 monomer (green fluorescence) at 6 uM incubated for 48 hrs by JC-1 staining based flow cytometry analysis (reference value: 2.96%). It counts as functional. Further details: scale not given: the % may be the effect or the level left.

The test system of data set [12] is 4T1. Kind of data set: In vivo antitumor activity against mouse 4T1 cells transfected in BALB/c mouse assessed as tumor growth inhibition at 30 mg/kg, ip daily for 14 consecutive days relative to control. It counts as functional. As to conditions: 4T1, 336 h, time 14 day, read-out: TGI.
Data set [13] can be described thus: Toxicity in healthy BALB/c mouse assessed as pathological changes in heart at 20 mg/kg, ip daily for 14 consecutive days by HE staining based assay. It counts as organism-based. As to conditions: in vivo, 336 h, time 14 day.
For data set [14], the system named is 4T1. Kind of data set: In vivo antitumor activity against mouse 4T1 cells transfected in BALB/c mouse assessed as tumor growth inhibition at 15 mg/kg, ip daily for 14 consecutive days relative to control. It counts as functional. As to conditions: time 14.0 day.
Data set [15] is described as follows: Antiproliferative activity against human MCF-10A cells assessed as cell viability measured after 48 hrs incubation by MTT assay. It is filed as toxicity, cell-based.
Data set [16] in a line: Selectivity index, ratio of IC50 for human MCF-10A cells to IC50 for human MCF7 cells. It is filed as toxicity. As to conditions: MCF-10A cells and MCF7 cells, read-out: Selectivity Index.

As to `CC(C)[C@@H](C)/C=C/[C@@H](C)[C@H]1CC[C@@H]2[C@]1(C)CC[C@H]1[C@]23C=C[C@]2(C[C@@H](O)CC[C@]12C)OO3` [ERGOSTEROL PEROXIDE], the results for the half-inhibitory concentration (IC50) in [1], in data set [3] and in data set [6] were 15 µM, 19.4 µM and 18.1 µM, respectively. Also, the Activity in data set [2] is on record as 0.47%; in data set [4], 61.61%; in [7], 0.45%; in data set [8], 8.97%; in data set [9], 18.74%; in data set [10] it was 19.66%. Further, the Activity in data set [11] is 11.3%. In addition, the viability at 6 µM in [5] amounted to 90.1%.

Take `O=c1[nH]cc(F)c(=O)[nH]1` [FLUOROURACIL]: the IC50 in data set [1] was determined as 4.27 µM; in [6], 10.7 µM. Also, in [12], the inhibition in vivo at 30 mg/kg was determined as 86.1%. Besides, in data set [13], the Activity result is given as “Non-toxic”. Further, in data set [14], the TGI entry is “Active”.

`CC(C)[C@@H](C)/C=C/[C@@H](C)[C@H]1CC[C@@H]2[C@]1(C)CC[C@H]1[C@]23C=C[C@]2(C[C@@H](OC(=O)NCCNC(=O)CN4C(=O)S/C(=C\C5CC5)C4=O)CC[C@]12C)OO3`: the IC50 in data set [1] was determined as 3.32 µM; in data set [3], 5.49 µM; in data set [6] it was 6.02 µM. The IC50 at 48 h in data set [15] amounted to 35.9 µM. Also, the selectivity ratio in data set [16] came out at 6.55.

Turning to `CC(C)[C@@H](C)/C=C/[C@@H](C)[C@H]1CC[C@@H]2[C@]1(C)CC[C@H]1[C@]23C=C[C@]2(C[C@@H](OC(=O)NCCNC(=O)CN4C(=O)S/C(=C\c5ccc(Cl)cc5)C4=O)CC[C@]12C)OO3`, the IC50 in data set [1] was found to be 8.91 µM; in data set [3], 5.9 µM; in data set [6], 8.92 µM. Besides, the concentration for half-maximal inhibition (IC50) at 48 h in [15] is 28.9 µM. In addition, the selectivity ratio in [16] came to 4.9.

What is called IC50 is the concentration that gives 50% inhibition.

Values taken from ChEMBL document CHEMBL6078657, “Thiazolidinedione-based structure modification of ergosterol peroxide provides thiazolidinedione-conjugated derivatives as potent agents against breast cancer cells through a PI3K/AKT/mTOR pathway” (Bioorg Med Chem, 2025).
